The values that follow come from patent EP4643869A1, “USE OF GNRH ANTAGONISTS SUCH AS TEVERELIX TO TREAT ACUTE URINARY RETENTION” (Antev Limited, priority 2024, dated 2025).

For data set [1], the system named is patients with a first episode of AUR related to BPH. The conditions noted are these: alfuzosin 10 mg once daily; placebo 39.7%; cited from earlier work.
Data set [2] has as its system patients 50 years or over, with BPH and bothersome voiding symptoms. In words: Investigator rating of efficacy and tolerability at final assessment (Experiment I). Format: in vivo, human. How it is done: This was a multicentre (n=8), randomised, double-blind, placebo-controlled study in treatment of patients 50 years or over, with BPH and bothersome voiding symptoms characterized as an International Prostate Symptom Score (IPSS score ≥13) and a uroflow <13 mL/sec for a voided volume ≥150 mL. Exclusion criteria included an urgent need for prostate surgery, elevated prostate specific antigen (PSA) levels above the upper limit of normal relative to age, major organ dysfunction, prior surgical treatment of the prostate or bladder, and a large residual urine volume (>350 mL).
The study comprised two periods: a four-week single-blind placebo run-in period for all patients to remove any placebo responders and reduce between-patient variability in baseline measurements. This was followed by a 16-week randomised, double-blind, placebo-controlled, parallel group period for eligible patients. Following screening (Day-28), patients entered the placebo run-in period and received two subcutaneous injections of placebo, 48 h apart. During this period, one visit was planned for training purposes (e.g., IPSS). […]
At the final assessment, the investigator assessed efficacy and tolerability as either very good/good, satisfactory, poor/insufficient, or not assessable.

Data set [3] shares this test system. The data set can be described thus: Safety: adverse events (Experiment I). In kind it is in vivo, human. The procedure: (§1) The study comprised two periods: a four-week single-blind placebo run-in period for all patients to remove any placebo responders and reduce between-patient variability in baseline measurements. This was followed by a 16-week randomised, double-blind, placebo-controlled, parallel group period for eligible patients. Following screening (Day-28), patients entered the placebo run-in period and received two subcutaneous injections of placebo, 48 h apart. During this period, one visit was planned for training purposes (e.g., IPSS). At the end of the placebo run-in period, patients still meeting the eligibility criteria were randomised to receive two subcutaneous injections of 60 mg teverelix or placebo, 48 h apart, on day 1 and day 3. Teverelix was supplied as a freeze-dried powder that was reconstituted with 5% mannitol in water for injection. Corresponding placebo formulations, without teverelix-TFA, were also prepared. Injections were given in the abdomen. Patients attended follow-up visits for up to 16 weeks.
Safety included the assessment of adverse events (AEs), vital signs (supine blood pressure and pulse), electrocardiograms (ECG), and clinical laboratory parameters (haematology, clinical chemistry, and urinalysis). Drug-related AEs were defined as those with a relationship to study drug of `likely' or `not assessable'.

Data set [4] in a line: Plasma concentrations of teverelix (Experiment I). In kind it is in vivo, human. The conditions noted are these: 60 mg s.c. on Day 1 and Day 3. How it is done: as §1
Blood samples were gathered in the morning on Day 1 and Day 3 prior to dosing, along with assessments at the conclusion of Weeks 1, 2, 3, 4, 8, 12, and the final evaluation at Week 16, for the measurement of teverelix, testosterone, and dihydrotestosterone (DHT). Plasma concentrations of teverelix were analysed to delineate the release profile of the active substance from teverelix.

For data set [5], the system named is testosterone. In words: PKPD of single-dose teverelix-TFA, subcutaneous or intramuscular. Format: in vivo. Conditions: single dose of 120 mg subcutaneous.
Data set [6] deals with male and female subjects. The data set can be described thus: Safety across 16 Phase 1 and Phase 2 clinical trials. In kind it is in vivo. Conditions: 1,117 injections s.c. or i.m.; no SUSARs reported. How it is done: Teverelix-TFA has been studied in 450 male and female subjects in 16 Phase 1 and Phase 2 clinical trials. Teverelix-TFA has been tested in various dosing regimens in Phase 2 clinical trials in 97 patients with BPH.
Administrations have ranged from a single dose of 0.125 mg up to 180 mg repeat doses of teverelix for three consecutive days.

Where a name gives a salt, the structure may show the parent alone. Where a SMILES comes first, the peptide text is derived from it. [ ]: non-standard residue; d: D form. dPhe(4-Cl) = N[C@H](Cc1ccc(Cl)cc1)C(=O)O; d2Nal = N[C@H](Cc1ccc2ccccc2c1)C(=O)O; d(hCit) = NC(=O)NCCCC[C@@H](N)C(=O)O; Lys(iPr) = CC(C)NCCCC[C@H](N)C(=O)O; d3Pal = N[C@H](Cc1cccnc1)C(=O)O

Regarding `COc1cc2nc(N(C)CCCNC(=O)C3CCCO3)nc(N)c2cc1OC` (stereo not shown) [alfuzosin], the “success rate after 6 months (successful TWOC and no AUR relapse nor any need for surgery)” value in data set [1] is reported as 43.5%.

For `CC(=O)N[C@H](Cc1ccc2ccccc2c1)C(=O)N[C@H](Cc1ccc(Cl)cc1)C(=O)N[C@H](Cc1cccnc1)C(=O)N[C@@H](CO)C(=O)N[C@@H](Cc1ccc(O)cc1)C(=O)N[C@H](CCCCNC(N)=O)C(=O)N[C@@H](CC(C)C)C(=O)N[C@@H](CCCCNC(C)C)C(=O)N1CCC[C@H]1C(=O)N[C@H](C)C(N)=O` [teverelix, N-Ac-d-Nal^1,d-pCl-Phe^2,d-Pal^3,d-(Hci)^6,Lys(iPr)^8,d-Ala^10 trifluoroacetate] (Ac-[d2Nal][dPhe(4-Cl)][d3Pal]SY[d(hCit)]L[Lys(iPr)]P[dA]-NH2), the “patients rated by the investigator as having very good/good tolerability” value in data set [2] is reported as “all patients”. Besides, in data set [3] (22 patients of 41), the “patients reporting an AE likely drug-related or not assessable” value was found to be 53.7%. Besides, in data set [3] (in vivo), the “intensity of drug-related AEs” value is recorded as “mild intensity”; the “patients with drug-related hyperuricaemia” value is reported as “one patient”; the “patients with drug-related urinary retention” value was 1 patient; the “serious AEs, assessed as not drug related” value is listed as “cholelithiasis/pancreatitis”. In addition, in data set [3] (share of patients), the injection site induration was 17.1%, the “pain (AE)” value is 2.4% and the “subcutaneous injection site reactions” value is recorded as 31.7%. For the same compound, the “time until which teverelix plasma concentrations kept rising” value in data set [4] was “until the end of Week 3”. The “PKPD profile versus two subcutaneous injections of 60 mg two days apart” value in data set [5] is listed as “comparable”. Moreover, the “overall safety and tolerability” value in data set [6] was “safe and well-tolerated”.
